Values quoted from earlier work as cited in PMC11604869, “Stereoselective block of the hERG potassium channel by the Class Ia antiarrhythmic drug disopyramide” (Cellular and Molecular Life Sciences: CMLS, 2024).

Legend:
[1] = parameters: method as in PMID 6740739
[2] = test system: rat ventricular ITO; parameters: method as in PMID 11327018; details: 100 μM
[3] = test system: rabbit ventricular ITO; parameters: method as in PMID 9550298; details: 30 μM
[4] = test system: rate corrected QT interval; parameters: method as in PMID 2439842; details: for effect on rate corrected QT interval: acute infusion, healthy human volunteers
[5] = plasma
[6] = test system: hERG; parameters: method as in PMID 12466236

Structure (SMILES): CC(C)N(CCC(C(N)=O)(c1ccccc1)c1ccccn1)C(C)C (racemic) [racemic disopyramide, 4-(diisopropylamino)−2-phenyl-2-(pyridin-2-yl) butanamide]
- therapeutic total plasma levels [1]: 6 to 8 µM
- effect on rat ventricular ITO [2]: no effect
- reduction of rabbit ventricular ITO amplitude [3]: ~ 33%

Structure (SMILES): CC(C)N(CC[C@@](C(N)=O)(c1ccccc1)c1ccccn1)C(C)C [R(−) disopyramide]
- effect on rate corrected QT interval [4]: not
- unbound fractions [5]: 0.338

Structure (SMILES): CC(C)N(CC[C@](C(N)=O)(c1ccccc1)c1ccccn1)C(C)C [S(+) disopyramide]
- effect on rate corrected QT interval [4]: prolongation of the rate corrected QT interval
- negative inotropic effect in humans ([4]; compared with R(−) disopyramide): smaller negative inotropic effect
- unbound fractions [5]: 0.208

Structure (SMILES): CCCCN1CCCC[C@H]1C(=O)Nc1c(C)cccc1C [levobupivacaine]
- potency of IhERG inhibition relative to dextrobupivacaine [6]: twofold
